Laboratory results: patent US20020151563A1, “Farnesyl transferase inhibitors in combination with HMG CoA reductase inhibitors for the inhibition of abnormal cell growth” (Pfizer Inc., priority 2001, published 2002)

System: NIH-3T3 tranfectant overexpressing mutant K-ras 4B
Assay: Prenylation of K-ras 4B in intact cells (anti-Pan-ras immunoblot, densitometric scanning)
Format: cell-based
Conditions: 72 hours at 37° C.; 0, 1.0, 5.0, 10.0 and 25 μm FTase inhibitor in the presence versus absence of 5,M of hydrolysed lovastatin
Procedure: The effectiveness of the FTase inhibitor 6-[(4-chloro-phenyl)-hydroxy-(3-methyl-3H-imidazol4-yl)-methyl]-4-(3-ethynyl-phenyl)-1-methyl-1H-quinolin-2-one on prenylation of K-ras 4B in intact cells is enhanced by a minimally effective dose of lovastatin. Semi-confluent monolayers of the NIH-3T3 tranfectant overexpressing mutant K-ras 4B are treated for 72 hours at 37° C. with increasing concentrations (0, 1.0 μm, 5.0 μm 10.0 μm and 25 μm) of 6-[(4-chloro-phenyl)-hydroxy-(3-methyl-3H-imidazol4-yl)-methyl]4-(3-ethynyl-phenyl)-1-methyl-1H-quinolin-2-one in the presence and absence of 5,M of hydrolysed lovastatin. […] The blots are incubated with peroxidase-conjugated secondary antibody, and the immunoblotted Ras protein are detected by enhanced chemiluminescence (Amersham Life Products, Arlington Heights, Ill.). Percent of prenylated Ras is determined by densitometric scanning using MasterScan 3.0 (Scanalytics, Billerica, Mass.). […]

C#Cc1cccc(-c2cc(=O)n(C)c3ccc(C(O)(c4ccc(Cl)cc4)c4cncn4C)cc23)c1 (stereo not shown) [6-[(4-chloro-phenyl)-hydroxy-(3-methyl-3H-imidazol4-yl)-methyl]-4-(3-ethynyl-phenyl)-1-methyl-1H-quinolin-2-one]
effectiveness on the inhibition of prenylation of K-ras 4B in intact cells (percent of prenylated Ras): enhanced
